Experiments:
Experiment in all cases: relative viability (nuclei count vs DMSO), 5 days (fraction); higher = more cells survive
LCLC-97TM1 = tested on: LCLC-97TM1
Outline: (§1)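 Five library-drug doses in √10 steps were combined with a fixed anchor-drug dose, or a single drug was given alone, by pin tool to lung cancer cell lines in 1536-well plates the day after seeding. Nuclei were stained and counted after 5 days. Relative viability is the nuclei count in treated wells over that in vehicle wells, taken as the median of duplicate plates.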

NCI-H661 = tested on: NCI-H661
Outline: as §1

NCI-H650 = tested on: NCI-H650
Outline: as §1

H3255 = tested on: H3255
Outline: as §1

201T = tested on: 201T
Outline: as §1

PC-14 = tested on: PC-14
Outline: as §1

NCI-H1666 = tested on: NCI-H1666
Outline: as §1

NCI-H520 = tested on: NCI-H520
Outline: as §1

NCI-H1915 = tested on: NCI-H1915
Outline: as §1

EPLC-272H = tested on: EPLC-272H
Outline: as §1

RERF-LC-KJ = tested on: RERF-LC-KJ
Outline: as §1

NCI-H23 = tested on: NCI-H23
Outline: as §1

NCI-H2405 = tested on: NCI-H2405
Outline: as §1

COR-L 105 = tested on: COR-L 105
Outline: as §1

NCI-H647 = tested on: NCI-H647
Outline: as §1

NCI-H322M = tested on: NCI-H322M
Outline: as §1

NCI-H2087 = tested on: NCI-H2087
Outline: as §1

HCC-78 = tested on: HCC-78
Outline: as §1

HCC-827 = tested on: HCC-827
Outline: as §1

NCI-H2347 = tested on: NCI-H2347
Outline: as §1

ChaGo-K-1 = tested on: ChaGo-K-1
Outline: as §1

NCI-H2126 = tested on: NCI-H2126
Outline: as §1

LC-2-ad = tested on: LC-2-ad
Outline: as §1

O=C(O)c1ccc(-c2c[nH]c3ncc(-c4ccccc4)cc23)cc1C1CCCC1 + CC(C)C[C@H](NC(=O)[C@H](Cc1ccccc1)NC(=O)c1cnccn1)B(O)O [Bortezomib] (partner 0.002 µM)
relative viability (LCLC-97TM1; first compound 0.04 µM): 0.835
relative viability (LCLC-97TM1; first compound 0.1265 µM): 1.03
relative viability (LCLC-97TM1; first compound 0.4 µM): 0.763
relative viability (LCLC-97TM1; first compound 1.265 µM): 0.403
relative viability (NCI-H661; first compound 0.04 µM): 0.72
relative viability (NCI-H661; first compound 0.1265 µM): 0.791
relative viability (NCI-H661; first compound 0.4 µM): 0.82
relative viability (NCI-H661; first compound 1.265 µM): 0.935
relative viability (NCI-H650; first compound 0.04 µM): 0.746
relative viability (NCI-H650; first compound 0.1265 µM): 0.895
relative viability (NCI-H650; first compound 0.4 µM): 0.858
relative viability (NCI-H650; first compound 1.265 µM): 0.5
relative viability (H3255; first compound 0.04 µM): 1.12
relative viability (H3255; first compound 0.1265 µM): 0.972
relative viability (H3255; first compound 0.4 µM): 0.833
relative viability (H3255; first compound 1.265 µM): 0.732
relative viability (201T; first compound 0.04 µM): 1.08
relative viability (201T; first compound 0.1265 µM): 1.08
relative viability (201T; first compound 0.4 µM): 1.12
relative viability (201T; first compound 1.265 µM): 1.02
relative viability (PC-14; first compound 0.04 µM): 0.917
relative viability (PC-14; first compound 0.1265 µM): 0.901
relative viability (PC-14; first compound 0.4 µM): 0.891
relative viability (PC-14; first compound 1.265 µM): 0.758
relative viability (NCI-H1666; first compound 0.04 µM): 0.86
relative viability (NCI-H1666; first compound 0.1265 µM): 0.813
relative viability (NCI-H1666; first compound 0.4 µM): 0.739
relative viability (NCI-H1666; first compound 1.265 µM): 0.304
relative viability (NCI-H520; first compound 0.04 µM): 0.567
relative viability (NCI-H520; first compound 0.1265 µM): 0.717
relative viability (NCI-H520; first compound 0.4 µM): 0.482
relative viability (NCI-H520; first compound 1.265 µM): 0.327
relative viability (NCI-H1915; first compound 0.04 µM): 0.957
relative viability (NCI-H1915; first compound 0.1265 µM): 0.949
relative viability (NCI-H1915; first compound 0.4 µM): 0.957
relative viability (NCI-H1915; first compound 1.265 µM): 0.789
relative viability (EPLC-272H; first compound 0.04 µM): 0.755
relative viability (EPLC-272H; first compound 0.1265 µM): 1.13
relative viability (EPLC-272H; first compound 0.4 µM): 0.931
relative viability (EPLC-272H; first compound 1.265 µM): 1.01
relative viability (RERF-LC-KJ; first compound 0.04 µM): 1.12
relative viability (RERF-LC-KJ; first compound 0.1265 µM): 1.14
relative viability (RERF-LC-KJ; first compound 0.4 µM): 1.06
relative viability (RERF-LC-KJ; first compound 1.265 µM): 0.996
relative viability (NCI-H23; first compound 0.04 µM): 1.05
relative viability (NCI-H23; first compound 0.1265 µM): 1.21
relative viability (NCI-H23; first compound 0.4 µM): 0.958
relative viability (NCI-H23; first compound 1.265 µM): 1.11
relative viability (NCI-H2405; first compound 0.04 µM): 0.989
relative viability (NCI-H2405; first compound 0.1265 µM): 1.03
relative viability (NCI-H2405; first compound 0.4 µM): 0.916
relative viability (NCI-H2405; first compound 1.265 µM): 0.819
relative viability (COR-L 105; first compound 0.04 µM): 0.775
relative viability (COR-L 105; first compound 0.1265 µM): 0.78
relative viability (COR-L 105; first compound 0.4 µM): 0.788
relative viability (COR-L 105; first compound 1.265 µM): 0.819
relative viability (NCI-H647; first compound 0.04 µM): 0.896
relative viability (NCI-H647; first compound 0.1265 µM): 1.19
relative viability (NCI-H647; first compound 0.4 µM): 1.3
relative viability (NCI-H647; first compound 1.265 µM): 0.772
relative viability (NCI-H322M; first compound 0.04 µM): 1.25
relative viability (NCI-H322M; first compound 0.1265 µM): 1.32
relative viability (NCI-H322M; first compound 0.4 µM): 1.33
relative viability (NCI-H322M; first compound 1.265 µM): 1.23
relative viability (NCI-H2087; first compound 0.04 µM): 0.963
relative viability (NCI-H2087; first compound 0.1265 µM): 0.902
relative viability (NCI-H2087; first compound 0.4 µM): 0.715
relative viability (NCI-H2087; first compound 1.265 µM): 0.565
relative viability (HCC-78; first compound 0.04 µM): 0.477
relative viability (HCC-78; first compound 0.1265 µM): 0.473
relative viability (HCC-78; first compound 0.4 µM): 0.436
relative viability (HCC-78; first compound 1.265 µM): 0.495
relative viability (HCC-827; first compound 0.04 µM): 0.982
relative viability (HCC-827; first compound 0.1265 µM): 1.18
relative viability (HCC-827; first compound 0.4 µM): 1.02
relative viability (HCC-827; first compound 1.265 µM): 0.884
relative viability (NCI-H2347; first compound 0.04 µM): 1.03
relative viability (NCI-H2347; first compound 0.1265 µM): 1.32
relative viability (NCI-H2347; first compound 0.4 µM): 0.869
relative viability (NCI-H2347; first compound 1.265 µM): 1.05
relative viability (ChaGo-K-1; first compound 0.04 µM): 1.08
relative viability (ChaGo-K-1; first compound 0.1265 µM): 1.16
relative viability (ChaGo-K-1; first compound 0.4 µM): 0.917
relative viability (ChaGo-K-1; first compound 1.265 µM): 1.21
relative viability (NCI-H2126; first compound 0.04 µM): 1.16
relative viability (NCI-H2126; first compound 0.1265 µM): 1.13
relative viability (NCI-H2126; first compound 0.4 µM): 1.1
relative viability (NCI-H2126; first compound 1.265 µM): 1.02
relative viability (LC-2-ad; first compound 0.04 µM): 1.04
relative viability (LC-2-ad; first compound 0.1265 µM): 1.1
relative viability (LC-2-ad; first compound 0.4 µM): 1.02
relative viability (LC-2-ad; first compound 1.265 µM): 0.779

— the supplement of paper PMC10307832
